The text below walks through data of patent US9221838B2, “Inhibitors of AKT activity” (ALMAC DISCOVERY LIMITED, priority 2009, dated 2015).

pIC50: −log10 of the molar value.

Format in all cases: biochemical
One test concerns the target T1, AKT2 (Homo sapiens, UniProt P31751).
T1 construct: purchased SignalChem
Put plainly: AKT Kinase Assay (IMAP fluorescent polarisation) vs AKT2. Put shortly:
(§1)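 Phosphorylation of FAM-Crosstide detected by IMAP binding and fluorescence polarisation (485/528 nm), with IC50 fitted from % inhibition versus vehicle. Compound was incubated 45 min with enzyme, then reacted 1 h at room temperature with ATP and peptide in Tris/MgCl2/DTT buffer. Dose response had fourteen half-log points.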

Another test concerns the target T2, AKT3 (Homo sapiens, UniProt Q9Y243).
T2 construct: purchased SignalChem
Put plainly: AKT Kinase Assay (IMAP fluorescent polarisation) vs AKT3. Put shortly:
as §1

The target of the next test is T3, AKT1 (Homo sapiens, UniProt P31749).
T3 construct: purchased SignalChem
Put plainly: AKT Kinase Assay (IMAP fluorescent polarisation) vs AKT1. Put shortly:
as §1

T3 sequence (P31749 whole entry): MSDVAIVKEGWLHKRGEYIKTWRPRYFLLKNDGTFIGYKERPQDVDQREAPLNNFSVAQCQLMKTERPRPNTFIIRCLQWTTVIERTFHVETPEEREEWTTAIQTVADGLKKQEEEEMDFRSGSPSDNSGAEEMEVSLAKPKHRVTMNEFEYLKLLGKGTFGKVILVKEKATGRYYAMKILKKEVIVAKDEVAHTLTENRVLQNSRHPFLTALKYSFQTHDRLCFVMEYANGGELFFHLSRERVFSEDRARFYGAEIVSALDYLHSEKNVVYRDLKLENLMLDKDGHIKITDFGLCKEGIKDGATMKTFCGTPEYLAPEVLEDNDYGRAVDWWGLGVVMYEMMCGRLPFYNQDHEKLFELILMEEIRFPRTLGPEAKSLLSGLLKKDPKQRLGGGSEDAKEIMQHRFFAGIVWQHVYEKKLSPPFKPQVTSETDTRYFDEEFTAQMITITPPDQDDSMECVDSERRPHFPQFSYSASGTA
T1 sequence (P31751 whole entry): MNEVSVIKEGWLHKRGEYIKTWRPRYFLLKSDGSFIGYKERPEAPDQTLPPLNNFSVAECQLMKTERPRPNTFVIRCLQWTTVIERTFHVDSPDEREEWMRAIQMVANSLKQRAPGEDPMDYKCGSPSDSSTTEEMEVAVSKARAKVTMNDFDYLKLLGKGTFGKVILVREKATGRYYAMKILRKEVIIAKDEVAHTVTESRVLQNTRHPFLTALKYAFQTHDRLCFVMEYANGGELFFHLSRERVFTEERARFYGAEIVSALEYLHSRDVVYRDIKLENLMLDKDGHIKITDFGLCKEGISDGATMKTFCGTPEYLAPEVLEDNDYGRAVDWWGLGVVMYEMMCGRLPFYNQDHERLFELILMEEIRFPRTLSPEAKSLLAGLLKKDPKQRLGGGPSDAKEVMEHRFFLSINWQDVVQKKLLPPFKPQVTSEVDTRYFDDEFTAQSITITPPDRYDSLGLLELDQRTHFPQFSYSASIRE
T2 sequence (Q9Y243 whole entry): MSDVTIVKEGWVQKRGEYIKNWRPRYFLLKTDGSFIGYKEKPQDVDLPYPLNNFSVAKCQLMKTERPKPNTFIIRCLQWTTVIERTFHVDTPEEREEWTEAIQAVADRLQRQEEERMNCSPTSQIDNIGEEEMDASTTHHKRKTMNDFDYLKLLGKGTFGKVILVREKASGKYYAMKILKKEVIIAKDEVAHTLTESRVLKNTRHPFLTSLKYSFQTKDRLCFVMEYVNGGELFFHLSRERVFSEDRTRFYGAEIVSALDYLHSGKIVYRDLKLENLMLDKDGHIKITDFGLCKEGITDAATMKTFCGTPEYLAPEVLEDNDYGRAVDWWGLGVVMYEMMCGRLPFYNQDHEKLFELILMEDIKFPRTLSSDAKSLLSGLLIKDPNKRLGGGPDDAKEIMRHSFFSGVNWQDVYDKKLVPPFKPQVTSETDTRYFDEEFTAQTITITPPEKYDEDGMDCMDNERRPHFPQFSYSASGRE

Consider `Cc1nc2c([nH]1)CCc1nc(-c3ccc(C4(N)CCC4)cc3)c(-c3ccccc3)cc1-2` [Example 15, 1-(4-(2-methyl-8-phenyl-4,5-dihydro-3H-imidazo[4,5-f]quinolin-7-yl)phenyl)cyclobutanamine], for which the values for the pIC50 on AKT2, at AKT3 and on AKT1 were 5.00 to 6.00, 5.00 to 6.00 and 6.00 to 7.00, respectively.
For the molecule `COCCN1C(=O)COc2nc(-c3ccc(C4(N)CCC4)cc3)c(-c3ccccc3)cc21` [Example 51, 6-(4-(1-aminocyclobutyl)phenyl)-1-(2-methoxyethyl)-7-phenyl-1H-pyrido[2,3-b][1,4]oxazin-2(3H)-one], the pIC50 on AKT2 was 6.00 to 7.00; on AKT3, 5.00 to 6.00; on AKT1, 6.00 to 7.00.
On to `N#CCCCCN1C(=O)COc2nc(-c3ccc(C4(N)CCC4)cc3)c(-c3ccccc3)cc21` [Example 66, 5-(6-(4-(1-aminocyclobutyl)phenyl)-2-oxo-7-phenyl-2,3-dihydro-1H-pyrido[2,3-b][1,4]oxazin-1-yl)pentanenitrile], for which the pIC50 at AKT2 was 6.00 to 7.00; on AKT3 it was 5.00 to 6.00; on AKT1, 6.00 to 7.00.
For `CN1C(=O)COc2nc(-c3ccc(CN)cc3)c(-c3ccccc3)cc21` [Example 131, 6-(4-(aminomethyl)phenyl)-1-methyl-7-phenyl-1H-pyrido[2,3-b][1,4]oxazin-2(3H)-one], the pIC50 was 6.00 to 7.00 on AKT2, 5.00 to 6.00 on AKT3 and 5.00 to 6.00 at AKT1.
With `NC1(c2ccc(-c3nc4c(cc3-c3ccccc3)-n3c(nnc3CC(F)(F)F)CO4)cc2)CCC1` [Example 118, 1-(4-(8-phenyl-1-(2,2,2-trifluoroethyl)-4H-pyrido[2,3-b][1,2,4]triazolo[4,3-d][1,4]oxazin-7-yl)phenyl)cyclobutanamine], the figures for the pIC50 at AKT2, at AKT3 and at AKT1 were 5.00 to 6.00, 5.00 to 6.00 and 6.00 to 7.00, respectively.
For the molecule `NC1(c2ccc(-c3nc4c(cc3-c3ccccc3)-n3c(Br)nnc3CO4)cc2)CCC1` [Example 92, 1-(4-(1-bromo-8-phenyl-4H-pyrido[2,3-b][1,2,4]triazolo[4,3-d][1,4]oxazin-7-yl)phenyl)cyclobutanamine], the pIC50 on AKT2 was 5.00 to 6.00; on AKT3, 5.00 to 6.00; at AKT1, 6.00 to 7.00.
Take `CN(C)CCN1C(=O)COc2nc(-c3ccc(C4(N)CCC4)cc3)c(-c3ccccc3)cc21` [Example 34, 6-(4-(1-aminocyclobutyl)phenyl)-1-(2-(dimethylamino)ethyl)-7-phenyl-1H-pyrido[2,3-b][1,4]oxazin-2(3H)-one]: the pIC50 at AKT2 was 5.00 to 6.00; at AKT3 it was less than 5.00; on AKT1 it was 5.00 to 6.00.
On to `Cn1cc2c(n1)-c1cc(-c3ccccc3)c(-c3ccc(C4(N)CCC4)cc3)nc1CC2` [Example 5, 1-(4-(2-methyl-8-phenyl-4,5-dihydro-2H-pyrazolo[3,4-f]quinolin-7-yl)phenyl)cyclobutanamine], for which the pIC50 was 5.00 to 6.00 at AKT2, less than 5.00 at AKT3 and 6.00 to 7.00 on AKT1.
On to `NCc1ccc(-c2nc3c(cc2-c2ccccc2)N(CC2CC2)C(=O)CO3)cc1` [Example 153, 6-(4-(Aminomethyl)phenyl)-1-(cyclopropylmethyl)-7-phenyl-1H-pyrido[2,3-b][1,4]oxazin-2(3H)-one], for which the pIC50 on AKT2 was 5.00 to 6.00; at AKT3, less than 5.00; on AKT1 it was 5.00 to 6.00.
Regarding `CO/N=C1\COc2nc(-c3ccc(C4(N)CCC4)cc3)c(-c3ccccc3)cc2N1C` [Example 90, 6-(4-(1-Aminocyclobutyl)phenyl)-1-methyl-7-phenyl-1H-pyrido[2,3-b][1,4]oxazin-2(3H)-one O-methyl oxime], the pIC50 on AKT2 is 6.00 to 7.00; on AKT3 it was less than 5.00; at AKT1, 5.00 to 6.00.
As for `CN1C(=O)COc2nc(-c3ccc(C4(N)CCC4)cc3)c(-c3cccs3)cc21` [Example 126, 6-(4-(1-aminocyclobutyl)phenyl)-1-methyl-7-(thiophen-2-yl)-1H-pyrido[2,3-b][1,4]oxazin-2(3H)-one], the pIC50 is 6.00 to 7.00 at AKT2, 5.00 to 6.00 at AKT3 and 6.00 to 7.00 at AKT1.
For `NC1(c2ccc(-c3nc4c(cc3-c3ccccc3)C(=O)COC4)cc2)CCC1` [Example 127, 2-(4-(1-aminocyclobutyl)phenyl)-3-phenyl-6,8-dihydro-5H-pyrano[3,4-b]pyridin-5-one], the pIC50 at AKT2 is less than 5.00; on AKT3, less than 5.00; on AKT1 it was 5.00 to 6.00.
`NC1(c2ccc(-c3nc4c(cc3-c3ccccc3)-n3c(nnc3C3CC3)CO4)cc2)CCC1` [Example 110, 1-(4-(1-cyclopropyl-8-phenyl-4H-pyrido[2,3-b][1,2,4]triazolo[4,3-d][1,4]oxazin-7-yl)phenyl)cyclobutanamine]: the pIC50 at AKT2, on AKT3 and at AKT1 was 6.00 to 7.00 throughout.
On to `CN(C)CCN1CCc2nc(-c3ccc(C4(N)CCC4)cc3)c(-c3ccccc3)cc2C1=O` [Example 25], for which the pIC50 on AKT2 is 5.00 to 6.00; at AKT3 it was less than 5.00; on AKT1, 6.00 to 7.00.
For `CC(C#N)N1C(=O)COc2nc(-c3ccc(C4(N)CCC4)cc3)c(-c3ccccc3)cc21` (stereo not drawn) [Example 54, 2-(6-(4-(1-aminocyclobutyl)phenyl)-2-oxo-7-phenyl-2,3-dihydro-1H-pyrido[2,3-b][1,4]oxazin-1-yl)propanenitrile] the same measures were 6.00 to 7.00, 5.00 to 6.00 and 6.00 to 7.00.
On to `NC1(c2ccc(-c3nc4c(cc3-c3ccccc3)N(Cc3cscn3)C(=O)CO4)cc2)CCC1` [Example 59, 6-(4-(1-aminocyclobutyl)phenyl)-7-phenyl-1-(thiazol-4-ylmethyl)-1H-pyrido[2,3-b][1,4]oxazin-2(3H)-one], for which the pIC50 on AKT2 was 6.00 to 7.00; on AKT3, 5.00 to 6.00; at AKT1 it was 5.00 to 6.00.
For the molecule `N[C@]1(c2ccc(-c3nc4c(cc3-c3ccccc3)-n3c(n[nH]c3=O)CO4)cc2)C[C@H](O)C1` [Example 141, 7-(4-((1s,3s)-1-amino-3-hydroxycyclobutyl)phenyl)-8-phenyl-2,4-dihydro-1H-pyrido[2,3-b][1,2,4]triazolo[4,3-d][1,4]oxazin-1-one], the pIC50 on AKT2, on AKT3 and on AKT1 was 6.00 to 7.00 each time.
As for `NC1(c2ccc(-c3nc4c(cc3-c3ccccc3)N(CC(F)F)C(=O)CO4)cc2)CCC1` [Example 85, 6-(4-(1-aminocyclobutyl)phenyl)-1-(2,2-difluoroethyl)-7-phenyl-1H-pyrido[2,3-b][1,4]oxazin-2(3H)-one], the pIC50 on AKT2 is no less than 7.00; at AKT3, 6.00 to 7.00; at AKT1, 6.00 to 7.00.
`Cn1ncc2c1-c1cc(-c3ccccc3)c(-c3ccc(C4(N)CCC4)cc3)nc1CC2` [Example 6, 1-(4-(1-methyl-8-phenyl-4,5-dihydro-1H-pyrazolo[3,4-f]quinolin-7-yl)phenyl)cyclobutanamine]: the pIC50 at AKT2 is 5.00 to 6.00; on AKT3, 5.00 to 6.00; at AKT1, 6.00 to 7.00.
On to `CCN1C(=O)COc2nc(-c3ccc(C4(N)CCC4)cc3)c(-c3ccccc3)cc21` [Example 52, 6-(4-(1-aminocyclobutyl)phenyl)-1-ethyl-7-phenyl-1H-pyrido[2,3-b][1,4]oxazin-2(3H)-one], for which the pIC50 at AKT2 was no less than 7.00; at AKT3, 5.00 to 6.00; on AKT1 it was 6.00 to 7.00.
For `CN1CC(=O)Nc2cc(-c3ccccc3)c(-c3ccc(C4(N)CCC4)cc3)nc21` [Example 72, 6-(4-(1-aminocyclobutyl)phenyl)-4-methyl-7-phenyl-3,4-dihydropyrido[2,3-b]pyrazin-2(1H)-one] the same measures were 5.00 to 6.00, less than 5.00 and 6.00 to 7.00.
Regarding `NC1(c2ccc(-c3nc4c(cc3-c3ccccc3)NCCO4)cc2)CCC1` [Example 37, 1-(4-(7-phenyl-2,3-dihydro-1H-pyrido[2,3-b][1,4]oxazin-6-yl)phenyl)cyclobutanamine], the pIC50 on AKT2 was 5.00 to 6.00; on AKT3, less than 5.00; at AKT1 it was 6.00 to 7.00.
For `NC1(c2ccc(-c3nc4c(cc3-c3ccccc3)C(=O)NCC4)cc2)CCC1` [Example 22, 2-(4-(1-aminocyclobutyl)phenyl)-3-phenyl-7,8-dihydro-1,6-naphthyridin-5(6H)-one] the same measures were 5.00 to 6.00, less than 5.00 and no less than 7.00.
As for `CSc1[nH]nc2c1CCc1nc(-c3ccc(C4(N)CCC4)cc3)c(-c3ccccc3)cc1-2` [Example 9, 1-(4-(3-(methylthio)-8-phenyl-4,5-dihydro-2H-pyrazolo[3,4-f]quinolin-7-yl)phenyl)cyclobutanamine], the pIC50 on AKT2 was 5.00 to 6.00; on AKT3 it was less than 5.00; on AKT1, 6.00 to 7.00.
For `CS(=O)(=O)N1CCOc2nc(-c3ccc(C4(N)CCC4)cc3)c(-c3ccccc3)cc21` [Example 70, 1-(4-(1-(methylsulfonyl)-7-phenyl-2,3-dihydro-1H-pyrido[2,3-b][1,4]oxazin-6-yl)phenyl)cyclobutanamine] the same measures were 6.00 to 7.00, less than 5.00 and 6.00 to 7.00.
For `NC1(c2ccc(-c3nc4c(cc3-c3ccccc3)-c3ncncc3CC4)cc2)CCC1` [Example 16, 1-(4-(9-phenyl-5,6-dihydropyrido[2,3-h]quinazolin-8-yl)phenyl)-cyclobutanamine] the same measures were 6.00 to 7.00, 5.00 to 6.00 and no less than 7.00.
The corresponding values for `C[C@]1(O)C[C@@](N)(c2ccc(-c3nc4c(cc3-c3ccccc3)N(CC#N)C(=O)CO4)cc2)C1` [Example 150, 2-(6-(4-((1r,3r)-1-amino-3-hydroxy-3-methylcyclobutyl)phenyl)-2-oxo-7-phenyl-2,3-dihydro-1H-pyrido[2,3-b][1,4]oxazin-1-yl)acetonitrile] are no less than 7.00, 5.00 to 6.00 and no less than 7.00.

As a reminder, the pIC50 is the IC50 on a negative log10 scale, so that one unit is a factor of ten.
